# From publication PMC3299684, “Two Odorant-Binding Proteins Mediate the Behavioural Response of Aphids to the Alarm Pheromone (E)-ß-farnesene and Structural Analogues” (PLoS ONE, 2012)
# Key:
# OBP7 [1] = molecular target: T1, OBP7 (Acyrthosiphon pisum, UniProt A0A8R1TDD0); assay: competitive displacement of 1-NPN fluorescence; assay type: binding; details: 50 mM Tris-HCl pH 7.4, 25°C; protein and 1-NPN 2 µM; KD calculated from IC50
# T1 construct: gene 100160457; primers encode N-terminus (M)YLSEA, C-terminus EFLPL
# T1 sequence (A0A8R1TDD0 31-155): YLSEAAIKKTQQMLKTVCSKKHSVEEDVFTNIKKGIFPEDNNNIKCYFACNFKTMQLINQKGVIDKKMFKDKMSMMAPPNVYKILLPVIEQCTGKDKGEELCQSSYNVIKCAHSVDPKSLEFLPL
# OBP3 [2] = molecular target: T2, OBP3 (Acyrthosiphon pisum, UniProt A0A8R1XHB4); assay: competitive displacement of 1-NPN fluorescence; assay type: binding; details: 50 mM Tris-HCl pH 7.4, 25°C; protein and 1-NPN 2 µM; KD calculated from IC50
# T2 construct: construct not detailed here
# T2 sequence (A0A8R1XHB4 24-141 limits assumed): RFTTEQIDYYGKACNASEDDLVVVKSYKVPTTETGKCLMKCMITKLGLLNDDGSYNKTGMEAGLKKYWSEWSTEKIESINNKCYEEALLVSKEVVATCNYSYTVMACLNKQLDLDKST
# OBP6 = molecular target: T3, OBP6 (Acyrthosiphon pisum, UniProt A0A8R1TDN2); assay: biochemical; parameters: competitive fluorescence binding assay, displacement of 1-NPN (2 uM) from recombinant OBP (2 uM), pH 7.4
# T3 sequence (A0A8R1TDN2 1-160): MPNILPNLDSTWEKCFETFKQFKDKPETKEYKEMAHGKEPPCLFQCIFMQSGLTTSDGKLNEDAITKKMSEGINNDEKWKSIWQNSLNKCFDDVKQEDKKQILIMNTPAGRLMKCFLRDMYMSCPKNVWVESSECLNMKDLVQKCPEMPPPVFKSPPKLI
# Method: The probe was excited at 337 nm and emission spectra were recorded between 380 and 450 nm. […] For determining binding constants, the intensity values corresponding to the maximum of fluorescence emission were plotted against free ligand concentrations. The curves were drawn using the Prism software, that allowed calculation of the dissociation constants and the stoichiometry of binding, assuming that the protein was 100% active. […] Supplementary file pone.0032759.s002.doc: Table S1 Binding properties of the ligands utilised in ligand binding assays and behaviour experiments. For each protein, [IC]50 reports the concentration of ligand that halves the initial fluorescence intensity (both protein and 1-NPN were used at the concentration of 2 µM). Dissociation constants are calculated as reported in the Materials and Methods section. The structures of “CAU” ligands are reported in Table 1, those of “LIG” chemicals in Figure 3. Blank cells indicate values of [IC]50 higher than 30 µM. For these compounds dissociation constants have not been calculated. (DOC) Click here for additional data file.
# OBP7 [3] = molecular target: T1, OBP7; assay: biochemical; parameters: competitive fluorescence binding assay, displacement of 1-NPN (2 uM) from recombinant OBP (2 uM), pH 7.4; details: for IC50: read-out: [IC]50 OBP7
# Method: (§1) The probe was excited at 337 nm and emission spectra were recorded between 380 and 450 nm. […] For determining binding constants, the intensity values corresponding to the maximum of fluorescence emission were plotted against free ligand concentrations. The curves were drawn using the Prism software, that allowed calculation of the dissociation constants and the stoichiometry of binding, assuming that the protein was 100% active. […] Supplementary file pone.0032759.s002.doc: Table S1 Binding properties of the ligands utilised in ligand binding assays and behaviour experiments. For each protein, [IC]50 reports the concentration of ligand that halves the initial fluorescence intensity (both protein and 1-NPN were used at the concentration of 2 µM). Dissociation constants are calculated as reported in the Materials and Methods section. The structures of “CAU” ligands are reported in Table 1, those of “LIG” chemicals in Figure 3. […] (DOC) Click here for additional data file.
# OBP3 [4] = molecular target: T2, OBP3; parameters: competitive fluorescence binding assay, displacement of 1-NPN (2 uM) from recombinant OBP (2 uM), pH 7.4; details: binder
# Method: as §1
compound,measurement,setting,value
C=CC(=C)CC/C=C(\C)CCC=C(C)C [(E)-ß-farnesene],KD,OBP7 [1],"including (E)-ß-farnesene and structurally similar molecules, bind only OBP3 and/or OBP7"
same,KD,OBP3 [2],"including (E)-ß-farnesene and structurally similar molecules, bind only OBP3 and/or OBP7"
CC(C)CCCC(C)CCOC(=O)c1ccccc1 (centres unmarked) [LIG-4],Kd,OBP6,13.9 µM
same,IC50,OBP6; read-out: [IC]50 OBP6,16.1 µM
same,IC50,OBP7 [3],2.5 µM
CC(=O)OC/C=C(\C)CCC=C(C)C [LIG-7],Kd,OBP7 [3],9.3 µM
same,IC50,OBP7 [3],18 µM
CC(C)CCOC(=O)CCCc1ccccc1 [LIG-8],Kd,OBP3 [4],10.7 µM
same,IC50,OBP3 [4]; read-out: [IC]50 OBP3,14 µM
same,Kd,OBP7 [3],2.8 µM
same,IC50,OBP7 [3],5.5 µM
